Where two headings read alike, the source gives them in different places.
Tests used:
[1] = tested on: Diabrotica balteata larvae; assay: Control of rootworm: greenhouse tray test on maize, soil application, larval mortality; assay type: in vivo; conditions: 168 h, infested 7 days after application, read-out: Corr. Mortality (%) 5 DAI
Description: (§1) Plastic trays (13×18×11.5 cm) with 4 holes in the bottom were filled with a filter paper and 400 mL Drench soil. 8 maize seeds (2 rows with 4 seeds each) were placed on the soil. Compound solution was applied with a track-sprayer at 200 L/ha. After drying seeds were covered with 200 mL untreated Drench soil and evened. Trays were incubated in a greenhouse chamber (25° C., 50% r.h., 14 h light (>20,000 lux)) and watered daily. 7 days after application each tray was infested with 10 (3 replicates) Diabrotica balteata larvae. After infestation all trays were covered with a plastic lid, which was perforated with 6-9 holes for ventilation. 5 days after infestation the survived larvae were counted. Also assessed was the larval growth (size difference between compound replicates and control). TEFL=Tefluthrin.

Agrotis ipsilon larvae = assay: Control of cutworm: greenhouse tray test on maize, soil application, larval mortality; assay type: in vivo; conditions: 168 h, infested 7 days after application, read-out: Corr. Mortality (%) 5 DAI
Description: as §1, with “(>20′000” for “(>20,000”, “5 (6” for “10 (3”, “Agrotis ipsilon” for “Diabrotica balteata”

[2] = w/15% Nachurs 6-24-6, 25 ppm AI
[3] = w/15% Nachurs 6-24-6, 100 ppm AI
[4] = w/30% Nachurs 6-24-6, 25 ppm AI
[5] = w/30% Nachurs 6-24-6, 100 ppm AI

Cc1c(F)c(F)c(COC(=O)[C@@H]2[C@H](/C=C(\Cl)C(F)(F)F)C2(C)C)c(F)c1F (racemic) [TEFL, Tefluthrin]
mortality at 25 ppm ([1]; no fertilizer, 25 ppm AI): 0%
mortality at 50 ppm ([1]; no fertilizer, 50 ppm AI): 0%
mortality at 100 ppm ([1]; no fertilizer, 100 ppm AI): 18%
mortality at 200 ppm ([1]; no fertilizer, 200 ppm AI): 86%
mortality at 400 ppm ([1]; no fertilizer, 400 ppm AI): 100%
mortality at 25 ppm [1, 2]: 4%
mortality at 50 ppm ([1]; w/15% Nachurs 6-24-6, 50 ppm AI): 14%
mortality at 100 ppm [1, 3]: 71%
mortality at 200 ppm ([1]; w/15% Nachurs 6-24-6, 200 ppm AI): 100%
mortality at 400 ppm ([1]; w/15% Nachurs 6-24-6, 400 ppm AI): 96%
mortality at 25 ppm [1, 4]: 4%
mortality at 50 ppm ([1]; w/30% Nachurs 6-24-6, 50 ppm AI): 11%
mortality at 100 ppm [1, 5]: 86%
mortality at 200 ppm ([1]; w/30% Nachurs 6-24-6, 200 ppm AI): 96%
mortality at 400 ppm ([1]; w/30% Nachurs 6-24-6, 400 ppm AI): 100%
mortality at 25 ppm (Agrotis ipsilon larvae; no fertilizer, 25 ppm AI): 38%
mortality at 100 ppm (Agrotis ipsilon larvae; no fertilizer, 100 ppm AI): 25%
mortality at 250 ppm (Agrotis ipsilon larvae; no fertilizer, 250 ppm AI): 71%
mortality at 500 ppm (Agrotis ipsilon larvae; no fertilizer, 500 ppm AI): 92%
mortality at 1000 ppm (Agrotis ipsilon larvae; no fertilizer, 1000 ppm AI): 100%
mortality at 25 ppm (Agrotis ipsilon larvae; [2]): 31%
mortality at 100 ppm (Agrotis ipsilon larvae; [3]): 29%
mortality at 250 ppm (Agrotis ipsilon larvae; w/15% Nachurs 6-24-6, 250 ppm AI): 79%
mortality at 500 ppm (Agrotis ipsilon larvae; w/15% Nachurs 6-24-6, 500 ppm AI): 100%
mortality at 1000 ppm (Agrotis ipsilon larvae; w/15% Nachurs 6-24-6, 1000 ppm AI): 100%
mortality at 25 ppm (Agrotis ipsilon larvae; [4]): 25%
mortality at 100 ppm (Agrotis ipsilon larvae; [5]): 29%
mortality at 250 ppm (Agrotis ipsilon larvae; w/30% Nachurs 6-24-6, 250 ppm AI): 79%
mortality at 500 ppm (Agrotis ipsilon larvae; w/30% Nachurs 6-24-6, 500 ppm AI): 96%
mortality at 1000 ppm (Agrotis ipsilon larvae; w/30% Nachurs 6-24-6, 1000 ppm AI): 100%
